The text below walks through data of ChEMBL document CHEMBL5137038, “Novel quinoline-based derivatives: A new class of PDE4B inhibitors for adjuvant-induced arthritis” (Eur J Med Chem, 2022).

As usually defined, the inhibition is the relative decrease from the control value, in per cent. A low value points to a weak effect. Usually IC50 stands for the concentration that inhibits the measured activity by half.

The first assay concerns RAW264.7. The assay is described as follows: Inhibition of LPS induced NO production in mouse RAW264.7 cells at 30 uM preincubated for 1 hr followed by LPS addition and measured after 24 hrs by Griess reagent based assay relative to control. The settings on record: time 25 hrs. The assay is classed as functional.
`O=S(=O)(Nc1cccc(NS(=O)(=O)c2cccc3cccnc23)c1)c1ccc(Br)cc1` gave an inhibition at 30 µM of 20.2%. Still for that read-out and setting: to `O=S(=O)(Nc1cccc(NS(=O)(=O)c2cccc3cccnc23)c1)c1ccc(C(F)(F)F)cc1` belongs 40.6%; to `O=S(=O)(Nc1cccc(NS(=O)(=O)c2cccc3cccnc23)c1)c1cccc(C(F)(F)F)c1`, 23.9%. Take `O=S(=O)(Nc1cccc(NS(=O)(=O)c2cccc3cccnc23)c1)c1ccc(F)cc1`: the inhibition at 30 µM was 19%. For `CC(C)c1ccc(S(=O)(=O)Nc2cccc(NS(=O)(=O)c3cccc4cccnc34)c2)cc1`, the inhibition at 30 µM is 41.5%.

The molecule `O=S(=O)(Nc1cccc(NS(=O)(=O)c2cccc3cccnc23)c1)c1ccc(Cl)cc1` showed an inhibition at 30 µM of 6.7%. Turning to `CC(C)(C)c1ccc(S(=O)(=O)Nc2cccc(NS(=O)(=O)c3cccc4cccnc34)c2)cc1`, the inhibition at 30 µM turned out to be 39.3%. The same measure, in the same setting: to `Cc1ccc(S(=O)(=O)Nc2cccc(NS(=O)(=O)c3cccc4cccnc34)c2)cc1` belongs 11.4%. `O=S(=O)(Nc1cccc(NS(=O)(=O)c2cccc3cccnc23)c1)c1ccccc1C(F)(F)F` displayed an inhibition at 30 µM of 22%. With `O=S(=O)(Nc1cccc(NS(=O)(=O)c2cccc3cccnc23)c1)c1cccc(Br)c1`, the inhibition at 30 µM came out at 31.1%. Regarding `O=S(=O)(Nc1cccc(NS(=O)(=O)c2cccc3cccnc23)c1)c1c(F)cccc1F`, the inhibition at 30 µM was determined as 23.6%. The same measure, in the same setting: the same measure for `O=S(=O)(Nc1cccc(NS(=O)(=O)c2cccc3cccnc23)c1)c1ccccc1OC(F)(F)F`: 13.2%; for `O=[N+]([O-])c1cccc(S(=O)(=O)Nc2cccc(NS(=O)(=O)c3cccc4cccnc34)c2)c1`: 28%. The same measure, in the same setting: the same measure for `O=S(=O)(Nc1cccc(NS(=O)(=O)c2cccc3cccnc23)c1)c1ccccc1F`: 30.2%; for `O=S(=O)(Nc1cccc(NS(=O)(=O)c2cccc3cccnc23)c1)c1cccc(F)c1`: 17.8%.

`COc1ccc(S(=O)(=O)Nc2cccc(NS(=O)(=O)c3cccc4cccnc34)c2)c(OC)c1` came in with an inhibition at 30 µM of 12.8%. The same measure, in the same setting: the same measure for `O=S(=O)(Nc1cccc(NS(=O)(=O)c2cccc3cccnc23)c1)c1ccc(I)cc1`: 39.5%; for `O=S(=O)(Nc1cccc(NS(=O)(=O)c2cccc3cccnc23)c1)c1ccccc1Cl`: 12.1%. Still for that read-out and setting: to `O=S(=O)(Nc1cccc(NS(=O)(=O)c2cccc3cccnc23)c1)c1cc(Cl)cc(Cl)c1` belongs 29%; to `O=S(=O)(Nc1cccc(NS(=O)(=O)c2cccc3cccnc23)c1)c1ccc(OC(F)(F)F)cc1`, 31.6%; to `O=S(=O)(Nc1cccc(NS(=O)(=O)c2cccc3cccnc23)c1)c1ccccc1`, 23.8%. The same measure, in the same setting: the same measure for `COc1ccc(Br)cc1S(=O)(=O)Nc1cccc(NS(=O)(=O)c2cccc3cccnc23)c1`: 16.3%.

Regarding `COc1ccc(S(=O)(=O)Nc2cccc(NS(=O)(=O)c3cccc4cccnc34)c2)cc1OC`, 30 µM produced 32.3% inhibition. The same measure, in the same setting: to `O=S(=O)(Nc1cccc(NS(=O)(=O)c2cccc3cccnc23)c1)c1ccccc1Br` belongs 23.6%. Still for that read-out and setting: the same measure for `CC(=O)Nc1ccc(S(=O)(=O)Nc2cccc(NS(=O)(=O)c3cccc4cccnc34)c2)cc1`: 7.74%. On the same count and under the same terms, the same measure for `N#Cc1ccc(S(=O)(=O)Nc2cccc(NS(=O)(=O)c3cccc4cccnc34)c2)cc1`: 25.2%. The molecule `O=S(=O)(Nc1cccc(NS(=O)(=O)c2cccc3cccnc23)c1)c1c(Cl)cccc1Cl` yielded an inhibition at 30 µM of 24.7%. The same measure, in the same setting: the same measure for `COc1ccc2c(c1)c(CC(=O)O)c(C)n2C(=O)c1ccc(Cl)cc1` [INDOMETHACIN]: 42.5%.

Another assay has as its system RAW264.7. The assay is described as follows: Inhibition of LPS induced NO production in mouse RAW264.7 cells preincubated for 1 hr followed by LPS addition and measured after 24 hrs by Griess reagent based assay. The assay is classed as functional, cell-based.
Conditions: not given
On the technique in general: Griess reagent forms a coloured azo dye with nitrite.
Turning to `COc1ccc2c(c1)c(CC(=O)O)c(C)n2C(=O)c1ccc(Cl)cc1` [INDOMETHACIN], the IC50 worked out at 34.3 µM.

For the next assay, the target named is 3',5'-cyclic-AMP phosphodiesterase 4B (Homo sapiens, UniProt Q07343). The assay is described as follows: Inhibition of PDE4B (unknown origin) using […] as substrate incubated for 1 hr by PDElight HTS cAMP phosphodiesterase assay.
Chain of 3',5'-cyclic-AMP phosphodiesterase 4B (Q07343 whole entry): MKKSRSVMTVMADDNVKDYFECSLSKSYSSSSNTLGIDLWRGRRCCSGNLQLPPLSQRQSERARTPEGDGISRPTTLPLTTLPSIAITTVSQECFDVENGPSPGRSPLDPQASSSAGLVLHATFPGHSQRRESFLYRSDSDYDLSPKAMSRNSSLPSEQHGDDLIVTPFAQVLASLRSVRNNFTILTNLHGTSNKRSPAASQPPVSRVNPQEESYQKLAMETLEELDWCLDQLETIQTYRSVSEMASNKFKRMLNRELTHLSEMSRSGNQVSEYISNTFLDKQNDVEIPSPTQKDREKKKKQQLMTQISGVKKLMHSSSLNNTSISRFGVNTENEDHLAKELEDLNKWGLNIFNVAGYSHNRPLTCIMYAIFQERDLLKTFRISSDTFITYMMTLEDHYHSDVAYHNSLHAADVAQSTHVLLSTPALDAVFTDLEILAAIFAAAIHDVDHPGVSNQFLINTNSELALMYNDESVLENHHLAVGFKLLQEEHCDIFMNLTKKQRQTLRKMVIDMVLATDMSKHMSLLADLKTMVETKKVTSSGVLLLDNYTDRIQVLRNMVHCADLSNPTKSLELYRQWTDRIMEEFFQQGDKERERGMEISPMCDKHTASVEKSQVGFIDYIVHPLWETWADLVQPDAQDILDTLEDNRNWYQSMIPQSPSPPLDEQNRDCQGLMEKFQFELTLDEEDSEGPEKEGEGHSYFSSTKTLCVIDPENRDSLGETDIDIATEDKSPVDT
Conditions: not given
In turn, `CC(C)c1cc(C(C)C)c(S(=O)(=O)Nc2cccc(NS(=O)(=O)c3cccc4cccnc34)c2)c(C(C)C)c1` registered a half-maximal inhibitory concentration (IC50) of 0.94 µM.
